According to patent US8940722B2, “Compounds for modulation of orphan nuclear receptor RAR-related orphan receptor-gamma (RORγ, NR1F3) activity and for the treatment of chronic inflammatory and autoimmune disease” (Phenex Pharmaceuticals AG, priority 2010, dated 2015):

How the values were obtained:
[1] = molecular target: T1, RORγ ligand binding domain (LBD) (Homo sapiens, UniProt P51449); test: TR-FRET Activity Assay (RORγ-LBD / coactivator peptide interaction); type: biochemical; conditions: Table 2; read-out: RORγ activity in the TR-FRET Activity Assay (IC50 FRET), Group
T1 construct: made in house; host or cells: E. coli BL-21 (BL3), vector pDEST15
T1 sequence (P51449 269-508 limits assumed): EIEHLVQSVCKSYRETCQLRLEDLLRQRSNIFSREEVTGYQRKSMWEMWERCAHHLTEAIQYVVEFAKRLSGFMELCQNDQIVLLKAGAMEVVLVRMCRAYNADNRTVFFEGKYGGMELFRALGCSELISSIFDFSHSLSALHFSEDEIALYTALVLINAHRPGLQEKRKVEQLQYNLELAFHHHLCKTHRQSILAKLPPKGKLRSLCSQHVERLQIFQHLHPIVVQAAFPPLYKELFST
Text: This method measures the ability of putative ligands to modulate the interaction between the purified bacterial expressed RORγ ligand binding domain (LBD) and synthetic N-terminally biotinylated peptides which are derived from nuclear receptor coactivator proteins such as but not limited to SRC1 (NcoA1), SRC2 (NcoA2, TIF2), SRC3 (NcoA3), PGC1α, PGC1β, CBP, GRIP1, TRAP220, RIP140.
The ligand-binding domain (LBD) of RORγ was expressed as fusion protein with GST in […] cells using the vector pDEST15. Cells were lysed by lysozyme-treatment and sonication, and the fusion proteins purified over glutathione sepharose (Pharmacia) according to the manufacturers instructions. For screening of compounds for their influence on the RORγ-peptide interaction, the LANCE technology (Perkin Elmer) was applied. This method relies on the binding dependent energy transfer from a donor to an acceptor fluorophor attached to the binding partner of interest. For ease of handling and reduction of background from compound fluorescence LANCE technology makes use of generic fluorophore labels and time resolved detection assays were done in a final volume of 25 μL in a 384 well plate, in a Tris-based buffer system (20 mM Tris-HCl pH6.8; 60 mM KCl, 1 mM DTT; 5 mM MgCl2; 35 ng/μL BSA), containing 20-60 ng/well recombinantly expressed RORγ-LBD fused to GST, 200-600 nM N-terminally biotinylated peptide, 200 ng/well Streptavidin-xIAPC conjugate (Prozyme) and 6-10 ng/well Eu W1024—antiGST (Perkin Elmer). DMSO content of the samples was kept at 1%.
After generation of the Tris-based buffer system, the potentially RORγ modulating ligands were diluted. […] The LANCE signal was detected by a Perkin Elmer EnVision™ Multilabel Counter. The results were visualized by plotting the ratio between the emitted light at 665 nm and 615 nm. […] Ligands that promote the complex formation induce a concentration-dependent increase in time-resolved fluorescent signal.
To assess the antagonistic potential of the compounds, IC50 values were determined using a Ligand Sensing Assay based on Time-resolved Fluorescence Energy Transfer (TR-FRET) as described above. The normalised TR-FRET assay values, using the following equation: 1000*665 nm measurement value/615 nm measurement value, were transferred to the program GraphPad Prism to generate graphs and dose response curves using the following equation: • Equation: Sigmoidal dose-response (variable slope) Y=Bottom+(Top−Bottom)/(1+10^((Log EC50−X)*HillSlope))
This is identical to the “four parameter logistic equation”. The IC50 values are calculated using this equation.

[2] = test system: plasma cytokines in C57/bl6 mice; test: In vivo assay for suppression of IL-17 (MOG/CFA/PTX immunisation); parameters: species or system mouse; conditions: 2×10 mg/(kg×day) i.p., MOG peptide+CFA+PTX immunised mice
Text: All animal models that mimic human autoimmune disease suffer from the issue that they are long lasting, require substantial amounts of exploratory drugs and do mostly not allow for monitoring IL-17 production in a simple setup. We therefore developed an in vivo assay based on an immunisation protocol that stems from a typical mouse Experimental Autoimmune Encephalomyelitis (EAE) model. Such EAE models employ the administration of certain autoimmunogenic peptides derived from i.e. Myelin Oligodendrocyte Glycoprotein (MOG) in conjunction with co-administration of a strong immune stimulants such as Complete Freund's Adjuvans (CFA) and a booster for T-cell activation such as Pertussis Toxin (PTX) to induce an autoimmune response. IL-17 producing Th17 cells are elevated under these conditions and about 14-21 days after the immunisation macroscopic signs of CNS inflammation such as impairment of movement become visible.
This immunisation scheme, while disturbing the regular development of macroscopic EAE symptoms in mice, allows for the monitoring of proinflammatory cytokines in plasma, specifically for IL-17, IL-2 and Interferon gamma IFNγ. […]

[3] = test system: activated human PBMCs; test: PBMC stimulation and cytokine release assay; type: cell-based
Description: Cryopreserved human PBMCs were purchased from Cellular Technology Ltd. thawed and counted as outlined in the supplier's protocol using CTL-anti-Aggregate-Wash-Supplement. Cells were washed and plated in CTL's serum free medium to −10^5 cells/well in anti-human CD3 coated 96 well T-cell activation plates (BD; Cat. No: 354725) together with anti-human CD28 antibody (BD; Cat. No: 555725) to a final concentration of 2 μg/mL. Samples were either treated with vehicle (0.1%) or small chemical molecules of the indicated concentrations.
For end point determination of cytokine production the cells were incubated for 72 h at 37° C. and 5% CO2. Supernatants were harvested and stored frozen at −80° C. until further processing. The cells were assayed for viability by incubation for 15 min with fluoresceindiacetate (5 μg/mL in PBS) and subsequent measurement of fluorescein (485 nm/535 nm).
Cytokine concentrations in the supernatants were determined in bead-based multiplex ELISA assays using Procarta Cytokine Assay Kits (Panomics) following the manufacturers instructions. The samples were read in a Luminex100 device and analysed with the IS Luminex 2.3 Software using a 5 parameter non-linear regression curve-fitting model.

Row | SMILES | IC50 [1] [nM] | further results
1 | O=S(=O)(c1cccc2cccnc12)N1Cc2ccccc2COCC1Cc1ccccc1 (centres unmarked) [1/8] | < 500 | plasma IFNγ levels (FIG. 1) [2]: increase; plasma IL-17 levels (FIG. 1) [2]: nearly completely reduced
2 | O=S(=O)(c1cccc2cccnc12)N1Cc2ccccc2COCC1CC1CCCC1 (centres unmarked) [1/44] | < 500 | effects on Th17-cytokine production in activated human PBMCs (FIG. 2) [3]: selective inhibitory effects
3 | O=S(=O)(c1cccc2cccnc12)N1Cc2ccccc2COC[C@H]1COCC1CCC1 [16/3] | 500 to 2000 | effects on Th17-cytokine production in activated human PBMCs (FIG. 2) [3]: selective inhibitory effects
4 | O=S(=O)(c1cccc2cccnc12)N1Cc2ccccc2COC[C@H]1COCC1CC1 [16/4] | 500 to 2000 | effects on Th17-cytokine production in activated human PBMCs (FIG. 2) [3]: selective inhibitory effects
5 | COc1ccccc1S(=O)(=O)N1Cc2ccccc2COCC1Cc1ccccc1 (centres unmarked) [Preparative Example 1, 4-Benzyl-5-(2-methoxyphenylsulfonyl)-3,4,5,6-tetrahydro-1H-benzo[f][1,4]-oxazocine] | < 500 | effects on Th17-cytokine production in activated human PBMCs (FIG. 2) [3]: selective inhibitory effects
6 | CN(C)C(=O)C[C@@H]1COCc2ccccc2CN1S(=O)(=O)c1cccc2cccnc12 [Preparative Example 26, (R)—N,N-Dimethyl-2-(5-(quinolin-8-ylsulfonyl)-3,4,5,6-tetrahydro-1H-benzo[f][1,4]oxazocin-4-yl)acetamide] | > 2000 | –
7 | Cc1nnc(C[C@@H]2COCc3ccccc3CN2S(=O)(=O)c2cccc3cccnc23)o1 [Preparative Example 27, (R)-4-((5-Methyl-1,3,4-oxadiazol-2-yl)methyl)-5-(quinolin-8-ylsulfonyl)-3,4,5,6-tetrahydro-1H-benzo[f][1,4]oxazocine] | > 2000 | –

Second part, led by results:

Row | IC50 [1] [nM] | SMILES | further results
8 | > 2000 | O=S(=O)(c1ccccc1OC(F)(F)F)N1Cc2nnc(C(F)(F)F)n2CCC[C@H]1Cc1ccccc1 [Preparative Example 31, (S)-8-Benzyl-9-((2-(trifluoromethoxy)phenyl)sulfonyl)-3-(trifluoromethyl)-5,6,7,8,9,10-hexahydro-[1,2,4]triazolo[4,3-a][1,4]diazocine] | –
9 | > 2000 | COc1ccccc1S(=O)(=O)N1Cc2ccccc2COCC1Cc1ccc(Br)cc1 (centres unmarked) [compound 3] | –
10 | 500 to 2000 | COc1ccccc1S(=O)(=O)N1Cc2ccccc2OCCC1Cc1ccccc1 (centres unmarked) [compound 4] | –
11 | < 500 | O=S(=O)(c1cccc2cccnc12)N1Cc2cccnc2COC[C@H]1Cc1ccccc1 [compound 6] | –
12 | 500 to 2000 | O=S(=O)(c1cccc2cccnc12)N1Cc2ccccc2COC[C@H]1Cc1cccnc1 [compound 7] | –
13 | > 2000 | CN1Cc2ccccc2CN(S(=O)(=O)c2cccc3cccnc23)[C@H](Cc2ccccc2)C1=O [compound 9] | –
14 | > 2000 | O=S(=O)(c1cc(F)ccc1N1CCOCC1)N1Cc2ccccc2COCC1Cc1ccccc1 (centres unmarked) [compound 12] | –
15 | > 2000 | O=S(=O)(c1cccc2cccnc12)N1Cc2cccc(O)c2COCC1Cc1ccccc1 (centres unmarked) [compound 13] | –
16 | > 2000 | COc1ccccc1S(=O)(=O)N1Cc2ccccc2CS(=O)(=O)CC1Cc1ccccc1 (centres unmarked) [compound 29] | –
17 | 500 to 2000 | O=S(=O)(c1cccc2cccnc12)N1Cc2ccccc2CCCC1Cc1ccccc1 (centres unmarked) [compound 30] | –
